From US20080306044A1, “SPIROBENZOAZEPANES AS VASOPRESSIN ANTAGONISTS” (priority 2007, published 2008)
pIC50: −log10 of the molar value.

Columns and labels:
human V2 receptor [1] = biological target: T1, human V2 receptor (Homo sapiens, UniProt P30518); assay: V2 vasopressin receptor functional activity (cAMP accumulation); assay type: cell-based; parameters: expressed in transfected cells; host or cells: HEK-293; details: V2-HEK cells; block of vasopressin-stimulated cAMP accumulation; read-out: V2 (functional) IC50
Experimental: The V2 receptor is also a G-protein coupled receptor which when activated induces an increase in cAMP turnover. Antagonism against the V2 receptor is determined by measuring cAMP accumulation in transfected HEK-293 cells expressing the human V-2 receptor (V2-HEK cells). Compounds are tested for their ability to block the stimulatory effects of vasopressin on cAMP accumulation. The cell content of cAMP is measured by radioimmunoassay using NEN flashplates.

human V1a receptor [2] = biological target: T2, human V1a receptor (Homo sapiens, UniProt P37288); assay: cell-based
T2 construct: expressed in transfected cells
Experimental: The V1a receptor is a G-protein coupled receptor, which upon activation triggers an increase in intracellular calcium mobilization. To evaluate compounds for their functional V1a receptor activity, HEK-293 cells were transfected with the human V1a receptor (V1a-HEK cells). HEK-293 cells were grown in DMEM (Dulbecco's modified Eagle Media) supplemented with 10% FBS and glutamine. HEK-cells were passed biweekly by trypsinization and seeded into 96 well plates at 33,000 cells per well. HEK-293 cells were transfected with human V1a receptor DNA using DMRIE-C reagent from Life Technologies (Carlsbad, Calif.). Stable lines were generated by selecting cells grown in culture media containing geneticin. After growing in Packard Clear-View black 96 well plates for 4-6 days, V1a-HEK cells were loaded with the calcium-sensitive fluorescence dye, FLUO-3 AM. Changes in intracellular calcium mobilization were measured by quantitating intracellular fluorescence using FLIPR (Fluorometric Imaging Plate Reader; Molecular Devices, Sunnyvale, Calif.). Test compounds were first added to the cells and the resulting changes in fluorescence measured to detect receptor agonistic activity. Five minutes later the cells were challenged with vasopressin to test compounds for their antagonistic activity. Receptor antagonists inhibit the ability of vasopressin to stimulate increases in intracellular fluorescence.

human V2 receptor [3] = biological target: T1, human V2 receptor; assay: In-vitro binding assay (3H-arginine-8-vasopressin), V2; details: for inhibition at 0.2 µM: test concentration of 0.2 μM, read-out: V2 binding percent inhibition (in parentheses, where an IC50 value was not obtained); for pIC50: membrane containing human V2 receptor, 3H-arginine-8-vasopressin 0.65-0.75 nM
Experimental: Assay buffer is 50 mM Tris-Cl, 5 mM MgCl2, 0.1% BSA (pH 7.5) containing 5 μg/mL of aprotinin, leupeptin, pepstatin, 50 μg/mL bacitracin, and 1 mM Pefabloc (4-(2-aminoethyl)-benzenesulfonyl fluoride, hydrochloride manufactured by Roche Diagnostics Corporation, Indianapolis, Ind. and distributed by Boehringer Mannheim). […] Into the wells of a 96-well round bottom polypropylene plates are added buffer, test compound, membrane (containing human V1a or V2 receptor), and H3 vasopressin. The reaction plates are allowed to sit at room temperature for one hour. The samples are filtered through Unifilter GF/C plates (PerkinElmer Life Sciences, Boston, Mass.) presoaked in 0.3 polyethyleneimine. The plates are washed 5 times with cold physiological saline containing 0.05% Tween 20. After drying, the bottom of the filter plates are sealed and 0.025 mL of Microscint-20 (Packard Instrument Co, Meriden, Conn.) is added to each filter. The top of the plate is sealed, and the plate is counted.
(§1) The % inhibition for the test results was calculated according to the formula: […]

human V1a receptor [4] = biological target: T2, human V1a receptor; assay: In-vitro binding assay (3H-arginine-8-vasopressin), V1a; details: for pIC50: membrane containing human V1a receptor, 3H-arginine-8-vasopressin 0.65-0.75 nM
Experimental: Assay buffer is 50 mM Tris-Cl, 5 mM MgCl2, 0.1% BSA (pH 7.5) containing 5 μg/mL of aprotinin, leupeptin, pepstatin, 50 μg/mL bacitracin, and 1 mM Pefabloc (4-(2-aminoethyl)-benzenesulfonyl fluoride, hydrochloride manufactured by Roche Diagnostics Corporation, Indianapolis, Ind. and distributed by Boehringer Mannheim). H3 vasopressin is ^3H-arginine-8-vasopressin (NEN Life Sciences, Boston, Mass.; 68.5 Ci/mmol, final concentration in assay is 0.65-0.75 nM). Into the wells of a 96-well round bottom polypropylene plates are added buffer, test compound, membrane (containing human V1a or V2 receptor), and H3 vasopressin. The reaction plates are allowed to sit at room temperature for one hour. The samples are filtered through Unifilter GF/C plates (PerkinElmer Life Sciences, Boston, Mass.) presoaked in 0.3 polyethyleneimine. The plates are washed 5 times with cold physiological saline containing 0.05% Tween 20. After drying, the bottom of the filter plates are sealed and 0.025 mL of Microscint-20 (Packard Instrument Co, Meriden, Conn.) is added to each filter. The top of the plate is sealed, and the plate is counted. Non-specific binding is determined by the addition of 1.25 μM arginine-8-vasopressin in those wells.
as §1
Where an IC50 value was not obtained, the percent inhibition values are shown in parentheses (*) and were obtained at a test concentration of 0.2 μM.

[5] = V1 (functional) IC50, V1a-HEK cells, inhibition of vasopressin-stimulated intracellular calcium mobilization

T2 sequence (P37288 whole entry): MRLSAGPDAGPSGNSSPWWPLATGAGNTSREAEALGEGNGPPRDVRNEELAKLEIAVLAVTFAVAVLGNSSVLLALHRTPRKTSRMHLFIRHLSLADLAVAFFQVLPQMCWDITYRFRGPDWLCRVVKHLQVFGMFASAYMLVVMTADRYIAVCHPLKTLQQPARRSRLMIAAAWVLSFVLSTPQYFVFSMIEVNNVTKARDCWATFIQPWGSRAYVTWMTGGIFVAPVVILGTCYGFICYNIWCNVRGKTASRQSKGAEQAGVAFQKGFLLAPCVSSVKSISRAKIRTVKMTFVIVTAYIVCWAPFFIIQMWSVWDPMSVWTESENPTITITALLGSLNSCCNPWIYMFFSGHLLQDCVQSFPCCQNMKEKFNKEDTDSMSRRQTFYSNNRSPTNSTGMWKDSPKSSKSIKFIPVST
T1 sequence (P30518 whole entry): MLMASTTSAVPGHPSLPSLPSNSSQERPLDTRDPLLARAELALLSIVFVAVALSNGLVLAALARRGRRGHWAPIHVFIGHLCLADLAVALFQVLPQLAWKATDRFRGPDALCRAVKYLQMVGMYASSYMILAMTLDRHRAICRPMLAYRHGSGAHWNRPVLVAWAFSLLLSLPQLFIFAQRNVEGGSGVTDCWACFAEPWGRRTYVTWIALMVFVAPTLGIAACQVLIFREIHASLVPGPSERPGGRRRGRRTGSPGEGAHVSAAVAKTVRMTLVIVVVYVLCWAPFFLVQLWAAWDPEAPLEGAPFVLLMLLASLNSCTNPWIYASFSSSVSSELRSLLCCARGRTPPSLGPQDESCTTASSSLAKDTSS

Structure (SMILES) | pIC50 (human V2 receptor [1]) | pIC50 (human V1a receptor [2]) | inhibition at 0.2 µM (human V2 receptor [3]) [%] | pIC50 (human V1a receptor [4]) | pIC50 (human V1a receptor [2]; [5]) | pIC50 (human V2 receptor [3]) | inhibition at 0.2 µM (human V1a receptor [4]; test concentration of 0.2 μM, read-out: V1a binding percent inhibition (in parentheses, where an IC50 value was not obtained)) [%]
CN(C)C1CCCC12CCN(C(=O)c1ccc(NC(=O)c3cc(F)ccc3Cl)cc1)c1ccccc1C2 (centres unmarked) [Cpd 6, N-[4-(2-chloro-5-fluoro-phenylcarbonyl)amino-phenylcarbonyl]-2-dimethylamino-spiro[cyclopentane-1,4′-benzo[b]azepane]] | 6.97 | 7.15 | 63 | 8.00 | – | – | –
O=C(Nc1ccc(C(=O)N2CC[C@@]3(CCCC3=NO)Cc3ccccc32)cc1)c1cc(F)ccc1Cl [Cpd 7, (R)—N-[4-(2-chloro-5-fluoro-phenylcarbonyl)amino-phenylcarbonyl]-2-hydroxyimino-spiro[cyclopentane-1,4′-benzo[b]azepane]] | 7.62 | – | – | 8.10 | 7.74 | 7.55 | –
O=C(Nc1ccc(C(=O)N2CCC3(CCCC3=NO)Cc3ccccc32)cc1)c1ccccc1-c1ccccc1 (centres unmarked) [Cpd 37, N-[4-(biphen-2-ylcarbonyl)amino-phenylcarbonyl]-2-hydroxyimino-spiro[cyclopentane-1,4′-benzo[b]azepane]] | 7.05 | – | – | 7.64 | 7.52 | 7.57 | –
NN=C1CCCC12CCN(C(=O)c1ccc(NC(=O)c3ccccc3-c3ccccc3)cc1)c1ccccc1C2 (centres unmarked) [Cpd 38, 2-aminoimino-N-[4-(biphen-2-ylcarbonyl)amino-phenylcarbonyl]-spiro[cyclopentane-1,4′-benzo[b]azepane]] | 7.40 | – | – | 7.68 | > 7.52 | 7.62 | –
NC1CCCC12CCN(C(=O)c1ccc(NC(=O)c3ccccc3-c3ccccc3)cc1)c1ccccc1C2 (centres unmarked) [Cpd 39, 2-amino-N-[4-(biphen-2-ylcarbonyl)amino-phenylcarbonyl]-spiro[cyclopentane-1,4′-benzo[b]azepane]] | 6.16 | 6.14 | – | 7.10 | – | 6.96 | –
NCC(=O)NC1CCCC12CCN(C(=O)c1ccc(NC(=O)c3ccccc3-c3ccccc3)cc1)c1ccccc1C2 (centres unmarked) [Cpd 40, 2-(aminomethylcarbonyl)amino-N-[4-(biphen-2-ylcarbonyl)amino-phenylcarbonyl]-spiro[cyclopentane-1,4′-benzo[b]azepane]] | 6.70 | 6.54 | – | 7.64 | – | 7.82 | –
NCCON=C1CCCC12CCN(C(=O)c1ccc(NC(=O)c3cccc(F)c3)cc1)c1ccccc1C2 (centres unmarked) [Cpd 41, N-[4-(3-fluoro-phenylcarbonyl)amino-phenylcarbonyl]-2-(2-amino-ethoxy)imino-spiro[cyclopentane-1,4′-benzo[b]azepane]] | 6.15 | 7.70 | 55 | 8.10 | – | – | –
COc1cc(C(=O)N2CCC3(CCCC3=NO)Cc3ccccc32)ccc1NC(=O)c1cc(F)ccc1Cl (centres unmarked) [Cpd 42, N-[3-methoxy-4-(2-chloro-5-fluoro-phenylcarbonyl)amino-phenylcarbonyl]-2-hydroxyimino-spiro[cyclopentane-1,4′-benzo[b]azepane]] | 7.04 | – | – | 7.92 | 7.22 | 7.41 | –
O=C(Nc1ccc(C(=O)N2CCC3(CCCC3=NNc3ccccn3)Cc3ccccc32)cc1)c1cc(F)ccc1Cl (centres unmarked) [Cpd 43, N-[4-(2-chloro-5-fluoro-phenylcarbonyl)amino-phenylcarbonyl]-2-pyridin-2-ylaminoimino-spiro[cyclopentane-1,4′-benzo[b]azepane]] | 6.70 | – | – | 8.30 | 7.10 | 7.25 | –
O=C(Nc1ccc(C(=O)N2CCC3(CCCC3=NO)Cc3ccccc32)cc1)c1cc(F)ccc1Cl (centres unmarked) [Cpd 44, N-[4-(2-chloro-5-fluoro-phenylcarbonyl)amino-phenylcarbonyl]-2-hydroxyimino-spiro[cyclopentane-1,4′-benzo[b]azepane]] | 7.18 | – | – | 8.15 | 7.70 | 7.55 | –
O=C(Nc1ccc(C(=O)N2CC[C@]3(CCCC3=NO)Cc3ccccc32)cc1)c1cc(F)ccc1Cl [Cpd 45, (S)—N-[4-(2-chloro-5-fluoro-phenylcarbonyl)amino-phenylcarbonyl]-2-hydroxyimino-spiro[cyclopentane-1,4′-benzo[b]azepane]] | 6.26 | – | 10 | – | 6.24 | – | 67
